What was measured:
[1] = test system: L1210 leukemia cells; assay: L1210 leukemia cell growth inhibition (48 hr, Coulter counter); format: cell-based, mouse; details: for IC50: Mus musculus, L1210, RPMI 1640, 10% fetal calf serum; for growth inhibitory activity in words: compared with 85024
Experimental: Compounds 85024, 85023, 85058, 85027 and 85060 having a glycosidic linkage between the 2'carbon of the arabinose (in pyranose configuration) and base were evaluated for their growth inhibitory action on L1210 leukemia cells maintained in RPMI 1640 medium supplemented with 10% fetal calf serum and 16 mM HEPES, pH 7.2. Cellular growth inhibition was determined by incubating […] for 48 hr in 2 ml of media containing varying concentrations of drugs. Cell growth inhibition (50% growth inhibitory concentration, IC50) was determined after counting cells with a Coulter counter (Bernacki et al., Cancer Res. 45, 695, 1985). Drug concentrations which inhibited cell growth by 50% (IC50) are listed for each compound in Table 1.

[2] = test system: L1210 leukemia; assay: Therapeutic activity of 85027, 5-FU and ara-C in DBA/2 mice with L1210 leukemia; format: in vivo, mouse (DBA/2); parameters: Mean ± SD survival: unit not given here; details: for Median survival: control 6; for Mean ± SD survival: control 6.4 ± 0.2
Experimental: The therapeutic activity of 85027 was compared with that of 5-Fluorouracil (5-FU) and Cytosine Arabinoside (ara-C) in DBA/2 mice with L1210 Leukemia. (Table 3) Tests were performed in accordance with the procedure described in Example 8. […] 5-FU was administered i.p. on days 1,3 and 6.

[3] = test system: L1210/5-FU leukemia; assay: Therapeutic activity in DBA/2N mice with 5-FU resistant L1210 leukemia; format: in vivo, mouse (DBA/2N female)
Experimental: (§1) In conducting the evaluations, the activity was tested against intraperitoneal (i.p.) implanted leukemia in mice.
(§2) DBA/2N female mice (20 g) were implanted i.p. with 1×10^6 L1210 leukemia cells on day 0. Mice were weighed and inspected for tumor growth and survival daily. […] Dosages varied from 1 to 800 mg/kg/day (mkd).
(§3) Survival time was measured in days after tumor implantation. % ILS (increase in life span) was based on mean survival.
(§4) Testing was followed as described in the NCI protocol and evaluation by comparison of median survival time (ST) of the treated animals to that of the control animals by the percentage increase in % ILS.
(§5) Drug resistant L1210 leukemia cell sublines were obtained from the National Cancer Institute. […] Eight mice were used as controls and five mice for each drug dosage group. Drugs were administered i.p. once per day on days 1, 2, 3, 4 and 5.

[4] = test system: L1210 leukemia cells; assay: Reversal of L1210 growth inhibition by salvageable nucleosides; format: cell-based, mouse; details: for IC50: Mus musculus
Experimental: Reversal studies were conducted as follows: […], 85027 or 5-FdUr were added at various concentrations near their IC50 to cultures of L1210 leukemia cells, maintained in PRMI 1640 medium supplemented with 10% fetal calf serum and 16mM HEPES, pH 7.2 as described in Example 9. Nucleosides including thymidine (1×10^-5 M), uridine (1×10^-4 M), deoxyuridine ([…]), adenosine (1×10^-4 M), or guanosine (1×10^-5 M) were also added to identical drug (85024, 85027 or 5-FdUr) containing L1210 leukemia cultures. Cellular growth inhibition or its prevention by the addition of salvageable nucleosides was determined 48 hours later by counting cells using an electronic Coulter Counter.

[5] = test system: L1210/ara-C leukemia; assay: Therapeutic activity in DBA/2N mice with ara-C resistant L1210 leukemia
Experimental: as §1, §2, §3, §4, §5

[6] = 5 mkd i.p. (head: × 5; text: × 3, days 1, 3 and 6)
[7] = 25 mkd i.p. (head: × 5; text: × 3, days 1, 3 and 6)

With `COC1OC[C@H]2OC(C)(C)O[C@H]2C1(F)n1ccc(=O)[nH]c1=O` (mixture of isomers) [compound 85023, Methyl 2-deoxy-3,4-0-isopropylidene-2-rac-[1H,3H-2,4-dioxo-1-pyrimidinyl]-2-fluoro-α-D-arabinopyranoside [5g] and Methyl 2-deoxy-3,4-0-isopropylidene-2-rac-[1H,3H-2,4-dioxo-1-pyrimidinyl]-2-fluoro-β-D-arabinopyranoside [6g]] the IC50 [1] was over 100 µM and the “growth inhibitory activity in words” value [1] was “loss in biological inactivity”.
With `O=c1[nH]cc(F)c(=O)[nH]1` [5-FU, 5-Fluorouracil] the “% ILS (increase in life span)” value ([2]; 5-FU, 5 mkd i.p. (head: × 5; text: × 3, days 1, 3 and 6), p < .01) was 41%, the “% ILS (increase in life span)” value ([2]; 5-FU, 25 mkd i.p. (head: × 5; text: × 3, days 1, 3 and 6), p < .01) was 88% and the “% ILS (increase in life span)” value ([2]; 5-FU, 50 mkd × 5 i.p., p < .01) was 34%. The “% ILS (increase in life span)” value ([2]; 5-FU, 100 mkd × 5 i.p., p < .05) was 22%, the “% ILS (increase in life span)” value ([2]; 5-FU, 200 mkd × 5 i.p., p < .05) was 22% and the “Survival Range” value [2, 6] was 9-9 days. The Median survival [2, 6] was 9 days, the “Mean ± SD survival” value [2, 6] was 9 and the “Survival Range” value [2, 7] was 12-12 days. For the same compound, the Median survival [2, 7] was 12 days, the “Mean ± SD survival” value [2, 7] was 12 and the toxicity to mice ([2]; 50, 100 and 200 mkd × 5 i.p.) was “extremely toxic to mice causing severe weight loss”. For the same compound, the “weight to which mice fell (severe weight loss)” value ([2]; 50, 100 and 200 mkd × 5 i.p.) was 13 to 14 g, the “Survival Range” value ([2]; 50 mkd × 5 i.p.) was 8 to 9 days and the Median survival ([2]; 50 mkd × 5 i.p.) was 9 days. For the same compound, the “Mean ± SD survival” value ([2]; 50 mkd × 5 i.p.) was 8.6 ± 0.2, the “Survival Range” value ([2]; 100 mkd × 5 i.p.) was 7 to 8 days and the Median survival ([2]; 100 mkd × 5 i.p.) was 8 days. For the same compound, the “Mean ± SD survival” value ([2]; 100 mkd × 5 i.p.) was 7.8 ± 0.2, the “Survival Range” value ([2]; 200 mkd × 5 i.p.) was 7 to 8 days and the Median survival ([2]; 200 mkd × 5 i.p.) was 8 days. The “Mean ± SD survival” value ([2]; 200 mkd × 5 i.p.) was 7.8 ± 0.2, the therapeutic effect ([3]; 25 mkd × 5) was “did not” and the “% ILS (increase in life span)” value ([3]; 25 mkd × 5 i.p.) was 12%. The “Mean Animal Weight” value ([3]; 25 mkd × 5 i.p.) was 17.6 g, the “Survival Range” value ([3]; 25 mkd × 5 i.p.) was 5 to 9 days and the Median survival ([3]; 25 mkd × 5 i.p., control 9) was 8 days. The “Mean ± SD survival” value ([3]; 25 mkd × 5 i.p., control 9.25 ± 0.2) was 7.6 ± 0.7 days.
`O=c1[nH]c(=O)n([C@H]2C[C@H](O)[C@@H](CO)O2)cc1F` [5-FdUr, 5-Fluorodeoxyuridine, reference compound] gave an IC50 ([4]; L1210, with 1×10^-5 M thymidine) of over 10 nM and an IC50 ([4]; L1210, without added thymidine) of 0.3 nM.
In the case of `Nc1ccn([C@@H]2O[C@H](CO)[C@@H](O)[C@@H]2O)c(=O)n1` [ara-C, Cytosine Arabinoside], the “Survival Range” value ([2]; 50 mkd × 5 i.p.) is reported as 9 to 14 days, the Median survival ([2]; 50 mkd × 5 i.p.) is reported as 14 days and the “Mean ± SD survival” value ([2]; 50 mkd × 5 i.p.) is reported as 13.0 ± 1.0. The “Survival Range” value ([2]; 100 mkd × 5 i.p.) was 14 to 15 days, the Median survival ([2]; 100 mkd × 5 i.p.) was 14 days and the “Mean ± SD survival” value ([2]; 100 mkd × 5 i.p.) was 14.4 ± 0.2. The “Survival Range” value ([2]; 200 mkd × 5 i.p.) was 8 to 19 days, the Median survival ([2]; 200 mkd × 5 i.p.) was 9 days and the “Mean ± SD survival” value ([2]; 200 mkd × 5 i.p.) was 12.4 ± 2.3. The “% ILS (increase in life span)” value ([2]; ara-C, 50 mkd × 5 i.p., p < .05) was 104%, the “% ILS (increase in life span)” value ([2]; ara-C, 100 mkd × 5 i.p., p < .01) was 126% and the “% ILS (increase in life span)” value ([2]; ara-C, 200 mkd × 5 i.p., p < .01) was 95%. The effect on lifespan ([2]; i.p. 5 day schedule, 50, 100 and 200 mg/kg) was “most effective causing a doubling of lifespan”, the “Survival Range” value ([5]; 100 mkd × 5 i.p.) was 7-7 days and the “% ILS (increase in life span)” value ([5]; 100 mkd × 5 i.p., NS) was 0%. For the same compound, the Median survival ([5]; 100 mkd × 5 i.p., control 7) was 7 days, the “Mean ± SD survival” value ([5]; 100 mkd × 5 i.p., control 7.1 + 0.1) was 0 days and the therapeutic effect ([5]; mice with L1210/ara-C leukemia (Table 4)) was “no therapeutic effect”. For the same compound, the “Mean Animal Weight” value ([5]; mouse, in vivo, ip) was 20.0 g.
With `COC1OC[C@@H](OC(C)=O)[C@@H](OC(C)=O)[C@]1(F)n1cc(F)c(=O)[nH]c1=O` (stereo partly drawn) [compound 85027, Methyl 3,4-di-0-acetyl-2-deoxy-2(R)-[1H,3H-2,4-dioxo-5-fluoro-1-pyrimidinyl]-2-fluoro-α-D-arabinopyranoside [5b] and Methyl 3,4-di-0-acetyl-2-deoxy-2(R)-[1H,3H-2,4-dioxo-5-fluoro-1-pyrimidinyl]-2-fluoro-β-D-arabinopyranoside[6b]] the IC50 [1] was 34 µM, the “Survival Range” value ([2]; 50 mkd × 5 i.p.) was 8-8 days and the Median survival ([2]; 50 mkd × 5 i.p.) was 8 days. For the same compound, the “Mean ± SD survival” value ([2]; 50 mkd × 5 i.p.) was 8 ± 0, the “Survival Range” value ([2]; 100 mkd × 5 i.p.) was 7 to 8 days and the Median survival ([2]; 100 mkd × 5 i.p.) was 8 days. For the same compound, the “Mean ± SD survival” value ([2]; 100 mkd × 5 i.p.) was 7.8 ± 0.2, the “Survival Range” value ([2]; 200 mkd × 5 i.p.) was 8 to 9 days and the “therapeutic activity compared with araC” value ([2]; 200 mkd × 5 i.p.) was “less therapeutic activity than araC”. For the same compound, the Median survival ([2]; 200 mkd × 5 i.p.) was 8 days, the “Mean ± SD survival” value ([2]; 200 mkd × 5 i.p.) was 8.2 ± 0.22 and the “% ILS (increase in life span)” value ([2]; 85027, 50 mkd × 5 i.p., p < 0.01) was 25%. For the same compound, the “% ILS (increase in life span)” value ([2]; 85027, 100 mkd × 5 i.p., p < 0.05) was 22%, the “% ILS (increase in life span)” value ([2]; 85027, 200 mkd × 5 i.p., p < 0.01) was 29% and the “cross resistance to ara-C and 5-FU” value ([5]; summary of L1210/ara-C and L1210/5-FU tests) was “not cross resistant”. The “reversal of cellular cytotoxicity by exogenous nucleosides” value ([4]; exogenous thymidine, uridine or deoxyuridine, tissue culture) was “not reversed by exogenous thymidine, uridine or deoxyuridine” and the “effect of added nucleoside on the IC50” value ([4]; thymidine (1×10^-5 M), uridine (1×10^-4 M) or deoxyuridine (1×10^-5 M)) was under 10%.
`CCCCCC(=O)O[C@@H]1[C@H](OC(=O)CCCCC)COC(OC)[C@@]1(F)n1ccc(=O)[nH]c1=O` (stereo partly drawn) [compound 85058, Methyl 2-deoxy-2(R)-[1H,3H-2,4-dioxo-1-pyrimidinyl]-2-fluoro-3,4-di-0-hexanoyl-α-D-arabinopyranoside [5d] and Methyl 2-deoxy-2(R)-[1H,3H-2,4-dioxo-1-pyrimidinyl]-2-fluoro-3,4-di-0-hexanoyl-β-D-arabinopyranoside [6d]] was tested, and the IC50 [1] was 40 µM and the “growth inhibitory activity in words” value [1] was “did not significantly affect activity”.
With `COC1OC[C@@H](OC(C)=O)[C@@H](OC(C)=O)[C@]1(F)n1cc(C)c(=O)[nH]c1=O` (stereo partly drawn) [compound 85060, Methyl 3,4-di-0-acetyl-2-deoxy-2(R)-[1H,3H-2,4-dioxo-5-methyl-1-pyrimidinyl]-2-fluoro-α-D-arabinopyranoside [5c] and Methyl 3,4-di-0-acetyl-2-deoxy-2(R)-[1H,3H-2,4-dioxo-5-methyl-1-pyrimidinyl]-2-fluoro-β-D-arabinopyranoside [6c]] the IC50 [1] was over 100 µM and the “growth inhibitory activity in words” value [1] was “inactive”.
